Experiments:
[1] = test system: Viola arvensis, Bromus spp., Lolium spp., Agropyron repens and Urtica urens; conditions: Hoechst et al., 1991; cited from earlier work
Brachiaria decumbens = assay: Greenhouse post-emergence herbicidal activity on Brachiaria decumbens; type: in vivo
Method: The expected efficacy of a combination of L-glufosinate ammonium and the other herbicides was calculated using the well-established Colby method. Any difference between the observed and “expected” efficacy could be attributed to synergy between the two compounds.
In the Colby method, the expected (or predicted) response of a combination of herbicides is calculated by taking the product of the observed response for each individual component of the combination when applied alone, divided by 100, and subtracting this value from the sum of the observed response for each component when applied alone. An unexpected enhancement in efficacy of the combination is then determined by comparing the observed response of the combination to the expected (or predicted) response as calculated from the observed response of each individual component alone. If the observed response of the combination is greater than the expected (or predicted) response, or stated conversely, if the difference between the observed and expected response is greater than zero, then the combination is said to be synergistic or unexpectedly effective (Colby, S. R., Weeds, 1967(15), p. 20-22). […]
The percentage efficacy was calculated at 7, 14, 21 and 28 days after application (DAA). The target weed was Brachiaria decumbens, and the concentration of the herbicide and the results are recorded Table 1.

| SMILES | Control of weed species by glufosinate [1] | Observed efficacy (%) of isoxaflutole (60 g a.i./ha) (Brachiaria decumbens; 7 DAA) [%] | Observed efficacy (%) of isoxaflutole (60 g a.i./ha) (Brachiaria decumbens; 14 DAA) [%] |
| --- | --- | --- | --- |
| CP(=O)(O)CCC(N)C(=O)O (racemic) [glufosinate, DL-homoalanin-4-yl(methyl)phosphinic acid] | either not combated, or only weakly combated | – | – |
| CS(=O)(=O)c1cc(C(F)(F)F)ccc1C(=O)c1cnoc1C1CC1 [isoxaflutole] | – | 45 | 70 |
